Test results reported in PubChem BioAssay (NCI).
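Assay format: 96-well plates, 48-hour exposure. GI50 marks 50% less growth. TGI is the concentration that stops growth completely.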

How the values were obtained:
Experiment in all cases: NCI tumour cell line growth inhibition, 48 h
[1] = tested on: SN12C renal
[2] = tested on: HCC-2998 colon
[3] = tested on: HCT-116 colon
[4] = tested on: OVCAR-8 ovarian
[5] = tested on: HOP-62 NSCLC
[6] = tested on: ACHN renal
[7] = tested on: SF-268 CNS
[8] = tested on: MOLT-4 leukemia
[9] = tested on: COLO 205 colon
[10] = tested on: PC-3 prostate

SMILES | TGI [1] | TGI [2] | TGI [3] | TGI [4] | TGI [5] | TGI [6] | TGI [7] | TGI [8] | TGI [9] | TGI [10] | GI50 [1] | GI50 [2] | GI50 [3] | GI50 [4] | GI50 [10] | GI50 [9] | GI50 [6] | GI50 [7]
CCOC(=O)CN1C(=O)c2cccc3cc([N+](=O)[O-])cc(c23)C1=O | 17.2 µM | 14.8 µM | 3 µM | 3.43 µM | 32.3 µM | 21.7 µM | 11.1 µM | 2.45 µM |  |  |  |  |  |  |  |  |  | 
N#CCCN(CCC#N)c1ccc(/C=C2\N=C(c3cc([N+](=O)[O-])ccc3Cl)OC2=O)cc1 | 37.8 µM | 52.6 µM | > 100 µM | 37.7 µM | 95.7 µM | > 100 µM | > 100 µM | 57.7 µM |  |  |  |  |  |  |  |  |  | 
CC(C)C/C(CC(=O)CCC(=O)Nc1ccccc1[N+](=O)[O-])=N\NC(=O)c1cc2ccccc2cc1O | > 100 µM | > 100 µM | > 100 µM | 95.8 µM | > 100 µM | > 100 µM | > 100 µM | > 100 µM | 69 µM |  |  |  |  |  |  |  |  | 
CCN(CCO)CC1CCCC2CCCCC21 (stereo not given) | > 100 µM | > 100 µM | > 100 µM | > 100 µM | > 100 µM | > 100 µM | > 100 µM |  | > 100 µM | > 100 µM |  |  |  |  |  |  |  | 
N#CC(c1ccc(Cl)cc1)c1cccc(C(C#N)c2ccc(Cl)cc2)n1 (stereo not given) | > 100 µM | > 100 µM |  | > 100 µM | > 100 µM | > 100 µM | > 100 µM | > 100 µM | 43 µM |  |  |  |  |  |  |  |  | 
CCCCCN(CCCCC)CCCNc1c2c(nc3ccc(Cl)cc13)CCCC2 | 12.8 µM | 8.89 µM | 2.9 µM | 8.88 µM |  | 11.6 µM | 14.5 µM |  | 2.81 µM | 8.9 µM | 2.92 µM | 2.48 µM | 0.88 µM | 2.9 µM | 2.46 µM | 1.28 µM | 3.48 µM | 3.67 µM
CCCCC(=O)OCC(=O)[C@]1(O)Cc2c(O)c3c(c(O)c2[C@@H](OC2CC(NC(=O)C(F)(F)F)C(O)C(C)O2)C1)C(=O)c1c(OC)cccc1C3=O (stereo not given in full) | 3.91 µM | 3.81 µM | 2.91 µM | > 39.6 µM | 0.988 µM | 3.04 µM | 4.99 µM |  | 3.69 µM | 16.9 µM |  |  |  |  |  |  |  | 
CCOc1ccc(NC(=O)C(=O)CC(=O)c2c[n+](=O)c3cc(C)c(C)cc3n2[O-])cc1 | > 100 µM | > 100 µM | > 100 µM | > 100 µM | > 100 µM | > 100 µM | > 100 µM | > 100 µM | > 100 µM |  |  |  |  |  |  |  |  | 
Cc1cc(C)nc(NS(=O)(=O)c2ccc(NC(=O)c3ccc(Cl)c4c(Nc5ccc(S(=O)(=O)Nc6nc(C)cc(C)n6)cc5)c5ccccc5nc34)cc2)n1 | > 100 µM |  |  | > 100 µM | > 100 µM | > 100 µM | > 100 µM | > 100 µM | > 100 µM |  |  |  |  |  |  |  |  | 
O=C1C2C(C(=O)N1OS(=O)(=O)c1ccccc1)N(Cc1ccccc1)C(=O)N2Cc1ccccc1 (stereo not given) | > 100 µM | > 100 µM | > 100 µM |  | > 100 µM | > 100 µM | > 100 µM | > 100 µM | > 100 µM |  |  |  |  |  |  |  |  | 
CN1C(=O)C(C)(C)C2(SC(C)(C)C2(C)C)N(C)C1=S (stereo not given) | > 100 µM | > 100 µM | > 100 µM | > 100 µM | > 100 µM | > 100 µM | > 100 µM | > 100 µM | > 100 µM |  |  |  |  |  |  |  |  | 
